Assay results reported in patent publication US8158621B2, “Methods of treating or preventing autoimmune diseases with 2,4-pyrimidinediamine compounds” (Rigel Pharmaceuticals, Inc., priority 2002, dated 2012).
“And” between values parts separate entries of the source, which are not always exact repeats. Equal values may be shown once. Read-outs that look alike come from different tables or passages of the source. One block for each compound: values may come before it.

Key:
[1] = test system: bone marrow derived mast cells (BMMC); assay: BMMC high cell density IgE activation: hexosaminidase; type: cell-based, mouse
[2] = Mouse Reverse Passive Arthus reaction (RPA reaction); type: in vivo, C57BL/6 mice; settings: oral
Summary of the method: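 C57BL/6 mice dosed with compound before challenge, pretreatment time set by each compound's PK; rabbit anti-OVA IgG (50 μg/mouse) given intradermally, then ovalbumin 20 mg/kg i.v. with 1% Evans blue. Dorsal skin edema and hemorrhage read by dye extravasation at 4 h; purified polyclonal rabbit IgG as control.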

Primary T-cells [3] = assay: Primary T-cell cytokine production (αCD3/αCD28): IFNg; type: cell-based, human; settings: read-out: 1° T-Cell IFNg IC50
Protocol: (§1) 2E8-4E8 PBMC or proliferating T cells grown in rIL-2 from healthy human donors were suspended in PBS were spun down (1500 rpm, 8-10 minutes) and resuspended in 100 ml RPMI Complete media (1% Pen-Strep, 1% L-Glutamine, 10 mM HEPES). The cells were plated in T175 flasks (37° C., 5% CO2) and monocytes were allowed to adhere for 2-3 hours. After monocyte attachment, non-adherent cells were harvested, counted by hemocytometer, washed several times with PBS then resuspended in Yssels Complete Media (Modified IMDM Media with 1% Human AB Serum, 1% Pen-Strep, 1% L-Glutamine, 10 mM HEPES) at […]. 90 uL of the cell dilution were then added to compounds diluted to 2× in Yssel's media and incubated for 30 minutes at 37° C. (5% CO2). After this preincubation step the compound/cell mixture was transferred to stimulation plates, as described below.
Stimulation plates were prepared by coating 96 well plates with 5 μg/ml αCD3 (BD PharMingen, Catalog #555336)+10 μg/ml αCD28 (Beckman Coulter, Catalog #IM1376) in PBS (no Ca^2+/Mg^2+) at 37° C. (5% CO2) for at 3-5 hours. After incubation with the stimulation antibodies, the cocktail was removed and the plates washed 3 times with PBS prior to addition of the primary T cell/compound mixture.
(§2) The compound/cell mixture was transferred to the stimulation plates and incubated for 18 hr at 37° C. (5% CO2). After the cell stimulation, ˜150 μl supernatant were transferred from each well into 96-well filter plates (Coming PVDF Filter Plates) spun down (2000 rpm, 2-3 minutes) and either used immediately for ELISA or LUMINEX measurements or frozen down at −80° C. for future use.
(§3) Luminex immunoassay multiplexing for TNF, IL-2, GMSCF, IL-4 and IFNg was performed essentially as described by the manufacturer (Upstate Biotechnology). Essentially 50 uL of sample was diluted into 50 uL assay diluent and 50 uL incubation buffer, then incubated with 100 uL of the diluted detection antibody for 1 hr at RT in the dark. The filter plate was washed 2× in Wash Buffer, then incubated with 100 uL of the diluted secondary reagent (SAV-RPE) for 30 min at RT in the dark. Finally the plates were washed 3 times and bead identification and RPE fluorescent measured by the Luminex instrument.
(§4) Varied concentrations of compound were compared to solvent only to determine the inhibition of T-cell activation IC50 of each compound.

Primary T-cells [4] = assay: Primary T-cell cytokine production (αCD3/αCD28): TNF; type: cell-based, human; settings: read-out: 1° T-Cell TNF IC50
Protocol: as §1
(5% CO2) for at 3-5 hours. After incubation with the stimulation antibodies, the cocktail was removed and the plates washed 3 times with PBS prior to addition of the primary T cell/compound mixture.
as §2, §3, §4

Syk kinase = target: T1, Syk kinase (Homo sapiens, UniProt P43405); assay: Syk kinase biochemical fluorescence polarization assay; settings: isolated Syk kinase, fluorescence polarization, 4 uM ATP
T1 construct: purchased Upstate, Lake Placid NY

[5] = High Density, read-out: BMMC anti-IgE hexos
[6] = 100 mg/kg, pretreatment time 0.5 hrs
[7] = 100 mg/kg, pretreatment time 1 hrs
[8] = 100 mg/kg, pretreatment time 2 hrs
[9] = 100 mg/kg, pretreatment time 0.5 hrs + 4 hours
[10] = 100 mg/kg, pretreatment time 2 hrs + 4 hours
[11] = 100 mg/kg, pretreatment time 1 hrs + 4 hours
[12] = high cell density, read-out: BMMC anti-IgE Hexos.
[13] = 50 mg/kg, pretreatment time 1 hrs
[14] = 200 mg/kg, 60 minutes prior to challenge
[15] = 200 mg/kg, pretreatment time 1 hrs

SMILES: COc1ccc(Nc2ncc(F)c(Nc3cccc(O)c3)n2)cc1OC [Compound R926113]
IC50 [1, 5]: 650 nM

SMILES: Oc1cccc(Nc2ncc(F)c(Nc3cccc(O)c3)n2)c1 [Compound R921218]
IC50 [1, 5]: 133 nM

SMILES: CNC(=O)COc1cccc(Nc2ncc(F)c(Nc3ccc4c(n3)NC(=O)CO4)n2)c1 [Compound R921304]
IC50 (Primary T-cells [3]): 2890 nM
IC50 (Primary T-cells [4]): 1500 nM

SMILES: CNC(=O)COc1cccc(Nc2ncc(F)c(Nc3ccc4c(c3)NCCO4)n2)c1 [Compound R921219]
IC50 (Syk kinase): 41 nM

SMILES: OCCCn1ncc2cc(Nc3ncc(F)c(Nc4ccc(Cl)c(Cl)c4)n3)ccc21 [Compound R935391]
IC50 (Syk kinase): 223 nM
IC50 [1, 12]: 250 nM

SMILES: Nc1cccc(Nc2ncc(F)c(Nc3cccc(N)c3)n2)c1 [Compound R921302]
inhibition of edema formation ([2]; 50 mg/kg, 60 minutes prior to Ab/Ag challenge): 49.9%
% inhibition to vehicle control Edema Size ± SEM [2, 13]: 50.0 ± 6.4% and 49.9%
inhibition of edema (therapeutic) ([2]; 100 mg/kg, 30 minutes post-challenge): 77.5%
inhibition of edema formation ([2]; 100 mg/kg, 60 minutes prior to Ab/Ag challenge): 93.2%
% inhibition to vehicle control Edema Size ± SEM [2, 6]: 89.44 ± 4.8%
% inhibition to vehicle control Edema Size ± SEM [2, 7]: 82.1 ± 10.9% and 92.3 ± 4.2% and 93.2%
inhibition of edema formation [2, 14]: 99.1%
% inhibition to vehicle control Edema Size ± SEM [2, 15]: 99.1 ± 0.9% and 99.1%
IC50 (Primary T-cells [3]): 3900 nM
IC50 (Primary T-cells [4]): 1630 nM

SMILES: CNC(=O)COc1cccc(Nc2ncc(F)c(Nc3ccc(OC(F)(F)F)c(Cl)c3)n2)c1 [Compound R920410]
% inhibition to vehicle control Edema Size ± SEM [2, 7]: 42.6 ± 15.1%
IC50 (Primary T-cells [3]): 4310 nM
IC50 (Primary T-cells [4]): 2990 nM

Second part, led by results:

IC50 [1, 5]: 1000 nM
SMILES: COc1ccc(Nc2ncc(F)c(Nc3ccc(OC)c(OC)c3)n2)cc1OC [Compound R926110]

IC50 [1, 5]: 600 nM
SMILES: Fc1cnc(Nc2ccc3c(c2)OCCO3)nc1Nc1ccc2c(c1)OCCO2 [Compound R926109]

IC50 (Primary T-cells [3]): 1670 nM
IC50 (Primary T-cells [4]): 99.2 nM
SMILES: CNC(=O)COc1cccc(Nc2ncc(F)c(Nc3ccc4c(n3)NC(=O)C(C)(C)O4)n2)c1 [Compound R940347]
inhibition of edema ([2]; 100 mg/kg, 2 hours prior to challenge): 89%
% inhibition to vehicle control Edema Size ± SEM [2, 6]: 36.7 ± 22.4%
% inhibition to vehicle control Edema Size ± SEM [2, 7]: 48.2 ± 5.7% and 48%
% inhibition to vehicle control Edema Size ± SEM [2, 8]: 88.9 ± 9.1% and 89%

IC50 (Syk kinase): 6 nM
Plasma Concentration ± SEM (ng/ml) Exposure = Pretreatment Time + 4 hours [2, 9]: 32 ± 10 ng/mL
Plasma Concentration ± SEM (ng/ml) Exposure = Pretreatment Time + 4 hours [2, 10]: 37 ± 18 ng/mL
SMILES: CC1(C)Oc2ccc(Nc3nc(Nc4ccc5cn[nH]c5c4)ncc3F)cc2NC1=O [Compound R940363]
% inhibition to vehicle control Edema Size ± SEM [2, 6]: −16.4 ± 10.9%
% inhibition to vehicle control Edema Size ± SEM [2, 7]: 67.6 ± 12.1% and 61 ± 8%
% inhibition to vehicle control Edema Size ± SEM [2, 8]: 52.3 ± 22.7%

IC50 (Syk kinase): 121 nM
Plasma Concentration ± SEM (ng/ml) Exposure = Pretreatment Time + 4 hours [2, 9]: 176 ± 58 ng/mL
Plasma Concentration ± SEM (ng/ml) Exposure = Pretreatment Time + 4 hours [2, 11]: 129 ± 55 ng/mL
Plasma Concentration ± SEM (ng/ml) Exposure = Pretreatment Time + 4 hours [2, 10]: 96 ± 28 ng/mL
IC50 (Primary T-cells [3]): 2470 nM
SMILES: CC1(C)Oc2ccc(Nc3ncc(F)c(Nc4ccc5c(c4)NC(=O)C(C)(C)O5)n3)cc2NC1=O [Compound R940350]
% inhibition to vehicle control Edema Size ± SEM [2, 6]: −15.6 ± 27.2%
% inhibition to vehicle control Edema Size ± SEM [2, 8]: 38.9 ± 24.3%

IC50 (Syk kinase): 114 nM
Plasma Concentration ± SEM (ng/ml) Exposure = Pretreatment Time + 4 hours [2, 9]: 619 ± 130 ng/mL
Plasma Concentration ± SEM (ng/ml) Exposure = Pretreatment Time + 4 hours [2, 11]: 837 ± 104 ng/mL and 1018 ± 189 ng/mL
Plasma Concentration ± SEM (ng/ml) Exposure = Pretreatment Time + 4 hours [2, 10]: 557 ± 78 ng/mL
IC50 (Primary T-cells [3]): 916 nM
IC50 [1, 12]: 103 nM
IC50 (Primary T-cells [4]): 600 nM
SMILES: COc1cc(Nc2ncc(F)c(Nc3ccc4c(c3)NC(=O)C(C)(C)O4)n2)cc(OC)c1 [Compound R927050]
% inhibition to vehicle control Edema Size ± SEM [2, 6]: −0.3 ± 6.6%
% inhibition to vehicle control Edema Size ± SEM [2, 7]: 14.9 ± 20.5% and 7 ± 19%
% inhibition to vehicle control Edema Size ± SEM [2, 8]: 64.0 ± 8.9%

Plasma Concentration ± SEM (ng/ml) Exposure = Pretreatment Time + 4 hours ([2]; 200 mg/kg, pretreatment time 0.5 hrs + 4 hours): 3703 ± 785 ng/mL
Plasma Concentration ± SEM (ng/ml) Exposure = Pretreatment Time + 4 hours ([2]; 200 mg/kg, pretreatment time 2 hrs + 4 hours): 2678 ± 496 ng/mL
IC50 (Primary T-cells [3]): 1280 nM
IC50 (Primary T-cells [4]): 796 nM
SMILES: CNC(=O)COc1cccc(Nc2ncc(F)c(Nc3ccc4c(c3)NC(=O)C(F)(F)O4)n2)c1 [Compound R921303]
dose-dependent inhibition of edema formation ([2]; 50 mg/kg): 65.4%
% inhibition to vehicle control Edema Size ± SEM [2, 13]: 64.1 ± 13.3% and 65.4%
dose-dependent inhibition of edema formation ([2]; 100 mg/kg): 81.2%
% inhibition to vehicle control Edema Size ± SEM [2, 7]: 80.5 ± 9.8% and 81.2%
dose-dependent inhibition of edema formation ([2]; 200 mg/kg): 100%
inhibition of edema formation [2, 14]: 100%
% inhibition to vehicle control Edema Size ± SEM ([2]; 200 mg/kg, pretreatment time 0.5 hrs): 100 ± 0%
inhibition of edema formation ([2]; 200 mg/kg, pretreatment time 30 minutes): 100%
% inhibition to vehicle control Edema Size ± SEM [2, 15]: 100 ± 0% and 100%
% inhibition to vehicle control Edema Size ± SEM ([2]; 200 mg/kg, pretreatment time 2 hrs): 93.3 ± 4.4%
inhibition of edema formation ([2]; 200 mg/kg, pretreatment time 120 minutes): 93.6%

IC50 (Syk kinase): 466 nM
IC50 (Primary T-cells [3]): > 10000 nM
IC50 [1, 12]: 5 nM
SMILES: CC1(C)Oc2ccc(Nc3nc(Nc4cc(Cl)cc(Cl)c4)ncc3F)cc2NC1=O [Compound R927064]
